In patent publication US5646308A, “Benzopyran derivatives” (Chugai Seiyaku Kabushiki Kaisha, priority 1992, dated 1997):
pIC50: −log10 of the molar value.

What was measured:
Rat Aorta = experiment: Test with Excised Aorta of Rat: relaxation of lasting KCl-induced contraction; design: species or system male Sprague Dawley rat; conditions: rat thoracic aorta rings, 30 mM KCl contraction, Krebs-Henseleit, 37° C., tension 2 g; read-out: IC50 (50% inhibitory concentration, relaxation of lasting contraction following KCl addition), Rat Aorta
Procedure: Test with Excised Aorta of Rat
The thoracic aorta was excised from a male Sprague Dawley rat (450 to 600 g) and cut into 2 mm wide ring preparations. Each preparation was suspended in 10 ml of an organ bath containing a Krebs-Henseleit solution (NaCl: 119; KCl: 4.8; CaCl2 ·2H2 O: 2.53; KH2 PO4 : 1.2; MgSO4 ·7H2 O: 1.2; NaHCO3 : 24.8; glucose: 10 (mM); 37° C.) under a tension of 2 g, and a mixed gas of 95% O2 and 5% CO2 was bubbled therethrough. Isometric contractions of the preparation were recorded by means of an FD pick-up. […] The activity of a test compound to relax a lasting contraction following the KCl addition was evaluated by obtaining a 50% inhibitory concentration (IC50).
The compounds of the present invention obtained in the foregoing Examples and, for comparison, Cromakalim were used as test compounds.

[1] = test system: Guinea Pig Tracheal Muscle; experiment: Test with Guinea Pig Tracheal Muscle: relaxing activity on spontaneous tension; design: species or system male Hartley guinea pig; conditions: Cavia porcellus, relaxation by 1 mM aminophylline = 100%, 37° C., tension 1 g, read-out: IC50 (concentration exhibiting 50% relaxing activity), Guinea Pig Tracheal Muscle
Procedure: Test with Guinea Pig Tracheal Muscle
The trachea was excised from a male Hartley guinea pig (450 to 550 g) to make chain preparations. The preparation was suspended In a bath containing the same Krebs-henseleit solution as used in Test Example 1 (37° C.) through which a mixed gas of 95% O2 and 5% CO2 was bubbled. Isometric contractions of the preparation were recorded under a tension of 1 g.
The same test compounds as used in Test Example 1 were used.

[2] = test system: histamine-induced increase in respiratory tract inner pressure; experiment: Study on Antiasthmatic Activity: inhibition of histamine-induced increase in respiratory tract inner pressure; format: in vivo, male hartley guinea pig; conditions: Cavia porcellus, 10 min; anesthetized guinea pig, intraduodenal, 0.3% CMC suspension; histamine 5 to 10 μg/kg i.v. every 10 minutes; read-out: ED50 (dose for 50% inhibition of the histamine-induced increase in respiratory tract inner pressure)
Procedure: Study on Antiasthmatic Activity
A mid-line incision was made in the neck of a male hartley guinea pig (600 to 800 g, CRJ) under anesthesia with […] (40 mg/kg, i.p.). The trachea, the […], and the left carotid artery were exposed, and a cannula was inserted into each of them. The inner pressure of the respiratory tract was measured while applying artificial respiration through the tracheal cannula. The blood pressure was measured through the arterial cannula, and the heart rate was determined from the pulse. Pentobarbital for anesthesia maintenance was continuously administered through the venous cannula. A mid-line incision was made on the abdomen to expose the duodenum, and a canuula for intraduodenal administration was inserted thereinto. After the postoperative convalescene of 30 to 60 minutes, histamine (5 to 10 μg/kg) was intravenously administered every 10 minutes. After it was confirmed that a respiratory tract inner pressure rise reaction was stably obtained, a test compound in the form of a 0.3% CMC suspension was intraduodenally administered. The histamine dose was so selected that the respiratory tract inner pressure might rise to 20 to 40 cmH2 O after every intravenous administration. After administration of the test compound, intrvenous administration of histamine at 10 minutes intervals was continued. The histamine-induced increase in respiratory tract inner pressure after the administration of the test compound was compared with that before the administration.

SMILES | pIC50 (Rat Aorta) | pIC50 [1] | ED50 [2]
CC1(C)Oc2ccc(C#N)cc2[C@@H](N2CCCC2=O)[C@@H]1O (relative stereo) [Cromakalim, reference compound] | 6.74 | 6.10 | 1 to 3 mg/kg
CNC(=O)C1=CC(CF)(CF)Oc2ccc([N+](=O)[O-])cc21 [Example 7, 2,2-Bis(fluoromethyl)-N-methyl-6-nitro-2H-1-benzopyran-4-carboxamide] | 8.22 | 8.00 | 0.01 mg/kg
CNC(=S)C1=CC(CF)(CF)Oc2ccc([N+](=O)[O-])cc21 [Example 8, 2,2-Bis(fluoromethyl)-N-methyl-6-nitro-2H-1-benzopyran-4-carbothioamide] | 9.55 | 8.52 | 
CN=C(NC#N)C1=CC(CF)(CF)Oc2ccc([N+](=O)[O-])cc21 [Example 9, N-Cyano-2,2-bis(fluoromethyl)-N'-methyl-6-nitro-2H-1-benzopyran-4-amidine] | 7.85 | 7.39 | 

Further compounds by rising pIC50 (Rat Aorta), results first:

pIC50 (Rat Aorta) | pIC50 [1] | SMILES | ED50 [2]
7.01 | 6.59 | CN=C(NC#N)C1=CC(C)(COC)Oc2ccc([N+](=O)[O-])cc21 (stereo not shown) [Example 3, N-Cyano-2-methoxymethyl-N',2-dimethyl-6-nitro-2H-1-benzopyran-4-amidine] | 
7.23 | 7.07 | CNC(=O)C1=CC(C)(COC)Oc2ccc([N+](=O)[O-])cc21 (stereo not shown) [1(2), 2-methoxymethyl-N,2-dimethyl-6-nitro-2H-1-benzopyran-4-carboxamide] | 0.1 mg/kg
7.77 | 7.54 | CNC(=S)C1=CC(C)(COC)Oc2ccc([N+](=O)[O-])cc21 (stereo not shown) [Example 2, 2-Methoxymethyl-N,2-dimethyl-6-nitro-2H-1-benzopyran-4-carbothioamide] | 
8.68 | 8.30 | N#CCCNC(=O)C1=CC(CF)(CF)Oc2ccc([N+](=O)[O-])cc21 [Example 10, N-(2-cyanoethyl)-2,2-bis(fluoromethyl)-6-nitro-2H-1-benzopyran-4-carboxamide] | 
